Assay results reported in article PMC3313951, “CUP-1 Is a Novel Protein Involved in Dietary Cholesterol Uptake in Caenorhabditis elegans” (PLoS ONE, 2012).
Residue numbers refer to the chain shown, from its start.

Columns and labels:
Experiment in all cases: FRET by acceptor photobleaching, DHE donor to GFP acceptor, fixed transfected HEK293-FT cells
Format in all cases: cell-based
[1] = target: T1, CUP-1-GFP (Cholesterol Uptake Protein-1; ZK721.1/tag-130) (Caenorhabditis elegans, UniProt Q9GYF0, Y576G); conditions: 5 uM DHE, 35 min, 37 °C; transmembrane CRAC motif mutant
T1 construct: gene chup-1; full-length CUP-1 (stop codon removed) with C-terminal EGFP (pEGFP-N1), transiently expressed in HEK293-FT cells; GFP is the FRET acceptor
T1 sequence (Q9GYF0 19-756 Y576G): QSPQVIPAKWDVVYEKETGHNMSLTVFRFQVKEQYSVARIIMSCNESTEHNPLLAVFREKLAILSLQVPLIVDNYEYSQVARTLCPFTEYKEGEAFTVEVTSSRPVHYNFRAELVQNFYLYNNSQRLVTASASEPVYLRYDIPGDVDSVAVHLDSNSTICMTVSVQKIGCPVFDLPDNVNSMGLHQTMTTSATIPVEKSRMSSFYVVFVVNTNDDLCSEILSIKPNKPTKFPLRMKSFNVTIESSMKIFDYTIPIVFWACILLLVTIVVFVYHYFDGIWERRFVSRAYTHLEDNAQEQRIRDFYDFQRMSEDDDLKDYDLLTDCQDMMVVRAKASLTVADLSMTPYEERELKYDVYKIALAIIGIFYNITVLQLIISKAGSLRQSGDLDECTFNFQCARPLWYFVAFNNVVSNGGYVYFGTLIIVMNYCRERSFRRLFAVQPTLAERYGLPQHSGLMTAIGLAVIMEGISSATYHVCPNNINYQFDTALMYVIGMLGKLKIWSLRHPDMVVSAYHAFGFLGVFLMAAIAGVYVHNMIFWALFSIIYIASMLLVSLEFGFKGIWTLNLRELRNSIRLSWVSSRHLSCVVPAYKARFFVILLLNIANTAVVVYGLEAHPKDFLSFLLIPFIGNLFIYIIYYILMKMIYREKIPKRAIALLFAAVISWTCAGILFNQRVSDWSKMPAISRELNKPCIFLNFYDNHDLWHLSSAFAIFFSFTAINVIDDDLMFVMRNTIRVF

[2] = target: T2, CUP-1-GFP (Cholesterol Uptake Protein-1; ZK721.1/tag-130) (Caenorhabditis elegans, UniProt Q9GYF0, Y126G/Y576G); conditions: 5 uM DHE, 35 min, 37 °C; double CRAC mutant
T2 construct: gene chup-1; full-length CUP-1 (stop codon removed) with C-terminal EGFP (pEGFP-N1), transiently expressed in HEK293-FT cells; GFP is the FRET acceptor
T2 sequence (Q9GYF0 19-756 Y126G/Y576G): T1 sequence (Q9GYF0 19-756 Y576G) with Y108G

[3] = target: T3, CUP-1-GFP (Cholesterol Uptake Protein-1; ZK721.1/tag-130) (Caenorhabditis elegans, UniProt Q9GYF0); conditions: 5 uM DHE, 35 min, 37 °C; soluble GFP control
T3 construct: gene chup-1; full-length CUP-1 (stop codon removed) with C-terminal EGFP (pEGFP-N1), transiently expressed in HEK293-FT cells
T3 sequence (Q9GYF0 19-756): T1 sequence (Q9GYF0 19-756 Y576G) with G558Y

[4] = target: T4, CUP-1-GFP (Cholesterol Uptake Protein-1; ZK721.1/tag-130) (Caenorhabditis elegans, UniProt Q9GYF0, Y126G); conditions: 5 uM DHE, 35 min, 37 °C; extracellular CRAC motif mutant
T4 construct: gene chup-1; full-length CUP-1 (stop codon removed) with C-terminal EGFP (pEGFP-N1), transiently expressed in HEK293-FT cells
T4 sequence (Q9GYF0 19-756 Y126G): T1 sequence (Q9GYF0 19-756 Y576G) with Y108G, G558Y

`CC(C)[C@@H](C)/C=C/[C@@H](C)[C@H]1CC[C@H]2C3=CC=C4C[C@@H](O)CC[C@]4(C)C3=CC[C@]12C` [DHE, Dehydroergosterol] showed an FRETeff [1] of 16.7%, an FRETeff [2] of 17.8% and an FRETeff [3] greater than 28%. The FRETeff [4] was “Mutagenization of the extracellular CRAC motif did not result in a statistically significant reduction”.
